From publication PMC4158172 (European Journal of Clinical Pharmacology, 2014)
Where two headings read alike, the source gives them in different places.

Legend:
[1] = Plasma metabolic profile of DTG (pooled plasma); assay type: in vivo, human; conditions: individual 24-h proportionally pooled plasma, DTG alone and DTG + EFV
Description: (§1) There was no washout between treatment periods. All doses were administered in the fasting state.
(§2) Urine samples were collected at intervals of 0 to 12 hours and 12 to 24 hours after each treatment period. Individual urine pools were produced for each subject in a given treatment group by combining proportional volumes (% of total volume) from the 0- to 12-hours and 12- to 24-hours collections. Individual pooled human plasma samples were prepared for each subject and treatment group.
Each pooled plasma sample was mixed with aqueous EDTA disodium salt solution (10 mg/mL) and subsequently extracted 3 times with methanol and acetonitrile. Pooled urine samples were lyophilised and the residue was reconstituted in water:methanol (90:10 v/v). Drug-related components in plasma extracts and urine samples were separated on a 100 × 4.6 mm 3.5-micron Symmetry C18 column (Waters Associates) at 40°C by a step-gradient elution method with a mobile phase composition of water:acetonitrile containing 0.1% ammonium acetate starting at 95:5 (v/v) and ending at 5:95 (v/v) over 50 minutes. The eluate was analysed by multistage mass spectrometry (MSn) using an LTQ Orbitrap™ Hybrid Mass Spectrometer with Xcalibur 2.07 software (Thermo Fisher Scientific, Bremen, Germany). […]

CYP3A4 [2] = conditions: cited from earlier work
P-glycoprotein (P-gp) = tested on: P-glycoprotein (P-gp); design: method as in PMID 23132334; conditions: in vitro; cited from earlier work
BCRP = tested on: BCRP; design: method as in PMID 23132334; conditions: in vitro; cited from earlier work
[3] = Safety evaluations, interaction study with EFV; assay type: in vivo, human; conditions: healthy subjects n=12
Description: (§3) In both studies, safety evaluations [adverse event (AE) reporting, clinical chemistry laboratory tests, urinalysis, vital signs and electrocardiogram] were performed throughout the study. Given the known hepatotoxicity profile of TPV/r, more frequent monitoring of liver chemistries was performed in the TPV/r study, and conservative stopping criteria were employed such that any subject reaching a grade 2 increase in alanine aminotransferase (ALT) or aspartate aminotransferase (AST) was discontinued from the trial. Both trials were conducted as inpatient studies with subjects housed in the unit for the duration of the study. The studies were conducted in accordance with the principles of the Declaration of Helsinki. A written informed consent was obtained from all subjects, and both protocols were approved by the institutional review board of the study sites.

[4] = Urinary metabolic profile of DTG (pooled urine); assay type: in vivo, human; conditions: pooled urine 0-24 h, n=12, mean (standard deviation)
Description: as §1, §2
Each pooled plasma sample was mixed with aqueous EDTA disodium salt solution (10 mg/mL) and subsequently extracted 3 times with methanol and acetonitrile. Pooled urine samples were lyophilised and the residue was reconstituted in water:methanol (90:10 v/v). Drug-related components in plasma extracts and urine samples were separated on a 100 × 4.6 mm 3.5-micron Symmetry C18 column (Waters Associates) at 40°C by a step-gradient elution method with a mobile phase composition of water:acetonitrile containing 0.1% ammonium acetate starting at 95:5 (v/v) and ending at 5:95 (v/v) over 50 minutes. The eluate was analysed by multistage mass spectrometry (MSn) using an LTQ Orbitrap™ Hybrid Mass Spectrometer with Xcalibur 2.07 software (Thermo Fisher Scientific, Bremen, Germany). Data-dependent scanning using an accurate mass list, consisting of all previously characterised metabolites, was used in addition to analysis of pre-dose samples to aid in the distinction of drug-related material from endogenous components.

[5] = DTG steady-state plasma pharmacokinetics, interaction with EFV; assay type: in vivo, human; conditions: for Cmax / AUC / concentration at 24 h / Tmax: both sexes, human, oral, fasting; for AUC: read-out: AUC(0–τ); for concentration at 24 h: read-out: C τ; for Tmax: n=12, median (range)
Description: There was no washout between treatment periods. All doses were administered in the fasting state. […]

OATP1B1 = conditions: cited from earlier work
CYP isozymes = tested on: CYP isozymes; design: method as in PMID 23132334; conditions: in vitro; cited from earlier work
[6] = design: method as in earlier work; conditions: SAILING, DTG 50 mg once daily with EFV- or TPV/r-containing background regimens, n=16; cited from earlier work
UGT1A1 = tested on: UGT1A1; design: method as in PMID 23132334; conditions: in vitro; cited from earlier work
[7] = design: method as in PMID 23075918; conditions: DTG 50 mg twice daily with rifampin; cited from earlier work
OATP1B3 = tested on: OATP1B3; design: method as in PMID 23132334; conditions: in vitro; cited from earlier work
UGT2B7 = tested on: UGT2B7; design: method as in PMID 23132334; conditions: in vitro; cited from earlier work
MRP2 = tested on: MRP2; design: method as in PMID 23132334; conditions: in vitro; cited from earlier work
[8] = Safety evaluations, interaction study with TPV/r; assay type: in vivo, human; conditions: healthy subjects n=18
Description: as §3

HIV = tested on: HIV; design: method as in earlier work; conditions: SAILING, cited from earlier work
CYP3A4 [9] = conditions: in vivo; cited from earlier work
[10] = plasma, DTG 50 mg + EFV 600 mg q24h for 14 days, n=12, geometric mean (CV%)
[11] = plasma, DTG 50 mg q24h alone for 5 days, n=12, geometric mean (CV%)
[12] = co-administration of EFV 600 mg q24h and DTG 50 mg q24h

share of drug-related material in plasma [1]: > 97% | % DTG ([4]; DTG 50 mg + EFV q24h): 100% | % Total drug-related response ([4]; DTG 50 mg + EFV q24h): 6.2 (5.0) % | % DTG ([4]; DTG 50 mg q24h): 100% | % Total drug-related response ([4]; DTG 50 mg q24h): 6.4 (1.8) % | GLS mean ratio (90 % CI) of AUC(0–τ) ([5]; DTG+EFV vs DTG alone, n=12): 0.431 (0.346, 0.536) | GLS mean ratio (90 % CI) of C max ([5]; DTG+EFV vs DTG alone, n=12): 0.608 (0.506, 0.730) | GLS mean ratio (90 % CI) of C τ ([5]; DTG+EFV vs DTG alone, n=12): 0.245 (0.179, 0.336) | Cmax ([5]; DTG 50 mg q24h alone for 5 days, healthy subjects n=12, plasma, geometric mean (CV%)): 3080 ng/mL | Cmax [5, 10]: 1870 ng/mL | AUC [5, 10]: 18200 ng·h/mL | concentration at 24 h [5, 10]: 220 ng/mL | Tmax ([5]; plasma, DTG 50 mg + EFV 600 mg q24h for 14 days): 1 h | AUC [5, 11]: 42300 ng·h/mL | concentration at 24 h [5, 11]: 910 ng/mL | Tmax ([5]; plasma, DTG 50 mg q24h alone for 5 days): 2 h | decrease in plasma DTG AUC(0–τ) [5, 12]: 57% | decrease in plasma DTG C max [5, 12]: 39% | decrease in plasma DTG C τ [5, 12]: 75%
Structure (SMILES): C[C@@H]1CCO[C@H]2Cn3cc(C(=O)NCc4ccc(F)cc4F)c(=O)c(O)c3C(=O)N12 [DTG, Dolutegravir]
induction of CYP3A4 (CYP3A4 [2]): not an inducer | direct inhibition of P-gp (P-glycoprotein (P-gp)): minimal or no direct inhibition | direct inhibition of BCRP (BCRP): minimal or no direct inhibition | subjects reporting at least one AE [3]: 17% | tolerability ([3]; repeat doses): generally well tolerated | direct inhibition of OATP1B1 (OATP1B1): minimal or no direct inhibition | direct inhibition of CYP isozymes (CYP isozymes): minimal or no direct inhibition | lower average DTG pre-dose (C 0) concentration [6]: 78% | pre-dose (C 0) concentration, geometric mean [6]: 186 ng/mL | direct inhibition of UGT1A1 (UGT1A1): minimal or no direct inhibition | C τ higher than with DTG 50 mg once daily alone [7]: 22% | direct inhibition of OATP1B3 (OATP1B3): minimal or no direct inhibition | direct inhibition of UGT2B7 (UGT2B7): minimal or no direct inhibition | direct inhibition of MRP2 (MRP2): minimal or no direct inhibition | subjects reporting headache [8]: 11% | week 48 Snapshot response rate (HIV; DTG 50 mg once daily with EFV- or TPV/r-containing background regimens, n=16): 56.3% | week 48 Snapshot response rate (HIV; subjects not on these inducers or inhibitors (atazanavir and atazanavir/ritonavir)): 74.4% | component of metabolism via CYP3A4 (CYP3A4 [9]): ~10%
